{
  "source": "patent US8628963B2",
  "about": "“Medium composition comprising neuropeptide Y for the generation, maintenance, prolonged undifferentiated growth of pluripotent stem cells and method of culturing pluripotent stem cell using the same” (Korea Research Institute of Bioscience and Biotechnology, priority 2009, dated 2014)",
  "key": {"[1]": {"system": "phospho-AKT in H9 cells", "assay": "Western blot of NPY signalling: AKT phosphorylation", "assay_type": "cell-based, human", "details": "1 μM NPY", "experimental": "(§1) The membranes were probed with the indicated antibodies, and β-actin was used as a loading control. For protein quantification, the blots were scanned, and the bands were quantified using densitometry (a-c, lower panels). The data are presented as the mean±SE (n=3). **p<0.01, *p<0.05, by t-test.\n(§2) The supernatant was re-centrifuged for 10 min, and protein concentrations determined using the BCA protein assay kit (Pierce, Rockford, Ill.). Proteins (20 μg) were fractionated by SDS polyacrylamide gel electrophoresis (PAGE), and electrotransferred to polyvinylidene fluoride (PVDF) membranes (Millipore Corp, Bedford, Mass.). Membranes were blocked in PBS containing 0.1% Tween-20 and 5% non-fat milk for 2 hrs at room temperature, and probed with primary antibodies diluted in PBS/0.2% BSA for 1 hr. After washing, membranes were incubation with the corresponding secondary anti-rabbit HRP-conjugated or anti-mouse HRP-conjugated antibodies (Amersham, Arlington Heights, Ill.), and the bands were visualized using the ECL Advance kit (Amersham). Bands were analyzed for density with Image Gauge software (Fuji Photo Film GMBH, D) and normalized to loading control (β-actin) bands. All experiments were performed in triplicate. Error bars represent standard error of the mean (n=3)."}, "[2]": {"system": "H9 hESCs", "assay": "BrdU incorporation (hESC proliferation)", "assay_type": "cell-based, human", "details": "inhibitor 10 μM (FIG. 4b), NPY medium", "experimental": "The proliferation rate of H9 hESCs cultured using the indicated media was measured using BrdU incorporation. […] Upper panels: representative images of BrdU+ cells. Bar=100 μm. Lower panels: Quantification of BrdU+ cells. The relative number of BrdU+ cells per field of vision was quantified and is presented as the percentage of the total number of cells counted.\nHuman embryonic stem cells were grown on matrigel-coated 4-well LabTec chamber slides for 4 days for the 5-bromo-2-deoxyuridine (BrdU; BD Pharmingen, San Diego) incorporation assays.\nFor BrdU incorporation, the cells were incubated in the presence of 30 μM BrdU for 1 hr at 37° C. […] After washing, the cells were incubated with the anti-BrdU antibody in PBS supplemented with 3% BSA for 1 hr, and then incubated with a FITC-conjugated secondary antibody (Invitrogen) for 30 min. The nuclei were stained with DAPI and examined using an Olympus microscope. The mean number of BrdU+ cells per field of vision was determined. At least four fields of vision per coverslip were counted."}, "[3]": {"system": "phospho-CREB in H9 cells", "assay": "Western blot / immunohistochemistry of NPY signalling: CREB phosphorylation", "assay_type": "cell-based, human", "details": "1 μM NPY; for Effect on NPY-mediated CREB phosphorylation: pretreatment with kinase inhibitor, inhibition appeared incomplete", "experimental": "as §1\nFor immunostaining, cells were plated on matrigel-coated 4-well Lab-Tek chamber slides (Nunc, Naperville, Ill.) and cultured for 5 days under described conditions. […] Cells were incubated for 2 hrs at 4° C. with respective primary antibodies diluted in PBS/0.2% BSA. After washing, cells were incubated with FITC- or Alexa 594-conjugated secondary antibodies (Invitrogen) in PBS/0.2% BSA for 1 hr at room temperature. Cells were counterstained using 10 μg/ml DAPI (4′,6-diamidino-2-phenylindole). Chamber slides were analyzed by an Olympus microscope or Axiovert 200M microscope (Carl Zeiss, Gottingen, Germany).\nas §2"}, "[4]": {"system": "H9 cells", "assay": "Growth efficiency test (cell number)", "assay_type": "cell-based, human", "details": "TGFβ addition (1 ng/ml) to N2/B27 medium with NPY, compared with MEF-CM and UM supplemented with NPY", "experimental": "Comparison of the growth efficiency of H9 cells cultured using the indicated media for 6 days by measuring the cell number as described in Materials and Methods. The data are presented as the mean±SE (n=3). **p<0.01, *p<0.02, by t-test.\nhESC clumps (100×100 μm; approximately 70-90 cells per clump) was seeded evenly on a 35 mm culture dish coated with Matrigel in a final volume of 2 ml. The cells were plated to a cell density of approximately 5×10^5 cells per 35 mm culture dish. The plated cells were allowed to grow for 6 days under described culture conditions. To determine the number of cells, the cells were washed with PBS and trypsinized. The cell suspension was mixed with a 0.4% (wt/vol) trypan blue solution, and the number of live cells was determined using a hemocytometer. Each trial was performed in triplicate."}, "[5]": {"system": "phospho-ERK1/2 in H9 cells", "assay": "Western blot of NPY signalling: ERK1/2 phosphorylation", "assay_type": "cell-based, human", "details": "30 min pretreatment with receptor antagonist (3 μM in FIG. 11 legend), 1 μM NPY", "experimental": "as §1, §2"}, "[6]": {"system": "human embryonic stem cells", "assay": "Feeder-free culture: maintenance of undifferentiated state (morphology, ALP staining, hESC markers)", "assay_type": "cell-based", "details": "3 μM antagonist in NPY medium", "experimental": "Each experiment was carried out at least three times. […] Error bars represent standard error of the mean (n=3)."}},
  "note": "“Also recorded” adds a separate entry of the source.",
  "data": [
    {"molecule": "N#CC(=C(/N)Sc1ccccc1N)/C(C#N)=C(\\N)Sc1ccccc1N", "note": "[U0126]", "values": [
      {"measurement": "Effect on NPY-mediated AKT activation", "setting": "[1]; pretreatment with kinase inhibitor (10 μM in FIG. 12 legend)", "result": "inhibited"},
      {"measurement": "Effect on NPY-stimulated BrdU incorporation", "setting": "[2]", "result": "potent in suppressing NPY-stimulated BrdU incorporation"},
      {"measurement": "Effect on NPY-mediated CREB phosphorylation", "setting": "[3]", "result": "blocked"}
    ]},
    {"molecule": "O=S(=O)(NCCNC/C=C/c1ccc(Br)cc1)c1cccc2cnccc12", "note": "[H89]", "values": [
      {"measurement": "Effect on NPY-stimulated BrdU incorporation", "setting": "[2]", "result": "potent in suppressing NPY-stimulated BrdU incorporation"},
      {"measurement": "Effect on NPY-mediated CREB phosphorylation", "setting": "[3]", "result": "blocked"}
    ]},
    {"molecule": "TGFβ", "values": [
      {"measurement": "Effect on growth efficiency (cell number)", "setting": "[4]", "result": "did not affect the growth efficiency"}
    ]},
    {"molecule": "NC(N)=NCCC[C@@H](NC(=O)C(c1ccccc1)c1ccccc1)C(=O)NCc1ccc(O)cc1", "note": "[BIBP3226]", "values": [
      {"measurement": "Effect on NPY-mediated AKT activation", "setting": "[1]; 30 min pretreatment with receptor antagonist (3 μM in FIG. 11 legend)", "result": "significantly reduced"},
      {"measurement": "Effect on NPY-mediated ERK activation", "setting": "[5]", "result": "significantly reduced"},
      {"measurement": "Effect on NPY-mediated up-regulation of p-CREB", "setting": "[3]; pretreatment with receptor antagonist", "result": "partially blocked"},
      {"measurement": "Maintenance of undifferentiated state in NPY medium in presence of antagonist (morphology; ALP, OCT4, SOX2, hTERT, TDGF)", "setting": "[6]", "result": "fail to maintain in an undifferentiated state; also recorded: loss of undifferentiated human embryonic stem cells"}
    ]}
  ]
}
